We go through six compounds from publication PMC10766964, “Copper-catalyzed synthesis of pyrazolo[1,5-a]pyrimidine based triazole-linked glycohybrids: mechanistic insights and bio-applications” (Scientific Reports, 2024).

A short description of data set [1]: MTT cell viability assay in normal MCF-10A cells. The format is cell-based. As to conditions: human, MCF-10A normal mammary epithelial cells, MCF-10A normal cells, read-out: Cell viability (%) ± SD. The method, then:
(§1) We also included normal mammary epithelial MCF-10A cells in our experiments to confirm if the growth-inhibitory activities of the selected compounds are truly cancer cell-specific. The activity data from MCF-7 and MDA-MB-453 cell lines (tested at 1 µM, 10 µM and 25 µM) and activity data from MCF-10A cell line (tested at 25 µM, 50 µM and 100 µM) are summarized in Table 3. To evaluate cell viability, the MTT assay was conducted following standard procedures. After 72 h of cell incubation with or without each compound, cell viability was assessed using MTT (3-(4,5-dimethylthiazol-2-yl)-2,5-diphenyltetrazolium bromide), which is a colorimetric method for determining the number of viable cells in various assays including proliferation, cytotoxicity, or chemosensitivity. The MTT reagent was added to the cells after removal of the medium and incubated for 3 h at 37 °C in the CO2 incubator. The formazan product, which is […] in the tissue culture medium, was dissolved in DMSO, and the absorbance of the formazan product was directly measured at 595 nm using a multimode plate reader without additional processing. The absorbance values are directly proportional to the number of viable cells in culture. The percentage of viable cells in each group was determined relative to the untreated control cells.
(Tetrazolium assays rely on reduction of a dye to a coloured formazan, in cell work by metabolically active cells.)

The test system of data set [2] is normal mammary epithelial MCF-10A cells. Nature of the data set: MTT cell viability assay in normal MCF-10A cells. As to conditions: tested at 25 µM, 50 µM and 100 µM. Type of data set: cell-based. The protocol: as §1

For orientation: viability means a read-out of living cells in per cent, often relative to untreated cells. Regarding `CC(=O)OC[C@H]1O[C@@H](n2cc(COc3cc(-c4ccc(C)cc4)nc4ccnn34)nn2)[C@H](OC(C)=O)[C@@H](OC(C)=O)[C@@H]1OC(C)=O` [Compound 9a, (2R,3R,4S,5R,6R)-2-(acetoxymethyl)-6-(4-(((5-(p-tolyl)pyrazolo[1,5-a]pyrimidin-7-yl)oxy)methyl)-1H-1,2,3-triazol-1-yl)tetrahydro-2H-pyran-3,4,5-triyl triacetate], in data set [1], the viability at 72 h, 25 µM stood at 88.6 ± 1.5%; the viability at 72 h, 50 µM came to 84.3 ± 2.9%; the viability at 72 h, 100 µM was determined as 84.2 ± 3%. Further, in data set [2], the “growth inhibitory activity against normal breast epithelial cell (MCF-10A) (in words)” value (“growth inhibitory activity” for short) is reported as “none of these compounds did have any growth inhibitory activity”.
Turning to `CC(=O)OC[C@H]1O[C@@H](n2cc(COc3cc(-c4ccc(Cl)cc4)nc4ccnn34)nn2)[C@H](OC(C)=O)[C@@H](OC(C)=O)[C@@H]1OC(C)=O` [Compound 9d, (2R,3R,4S,5R,6R)-2-(acetoxymethyl)-6-(4-(((5-(4-chlorophenyl)pyrazolo[1,5-a]pyrimidin-7-yl)oxy)methyl)-1H-1,2,3-triazol-1-yl)tetrahydro-2H-pyran-3,4,5-triyl triacetate], in data set [1], the viability at 72 h, 25 µM was 87.8 ± 2.8%; the viability at 72 h, 50 µM is 85.6 ± 0.7%; the viability at 72 h, 100 µM was 82 ± 1.5%. For the same compound, the “growth inhibitory activity” value in data set [2] is on record as “none of these compounds did have any growth inhibitory activity”.
For `CC(=O)OC[C@H]1O[C@@H](n2cc(COc3cc(-c4ccc5ccccc5c4)nc4ccnn34)nn2)[C@H](OC(C)=O)[C@@H](OC(C)=O)[C@@H]1OC(C)=O` [Compound 9h, (2R,3R,4S,5R,6R)-2-(acetoxymethyl)-6-(4-(((5-(naphthalen-2-yl)pyrazolo[1,5-a]pyrimidin-7-yl)oxy)methyl)-1H-1,2,3-triazol-1-yl)tetrahydro-2H-pyran-3,4,5-triyl triacetate] the same measures were 86.8 ± 5.3%, 88.8 ± 3%, 68.5 ± 3.4% and “none of these compounds did have any growth inhibitory activity”.
`CC(=O)OC[C@H]1O[C@@H](n2cc(COc3cc(-c4ccc(Cl)cc4)nc4ccnn34)nn2)[C@H](OC(C)=O)[C@@H](OC(C)=O)[C@H]1OC(C)=O` [Compound 10d, (2R,3S,4S,5R,6R)-2-(acetoxymethyl)-6-(4-(((5-(4-chlorophenyl)pyrazolo[1,5-a]pyrimidin-7-yl)oxy)methyl)-1H-1,2,3-triazol-1-yl)tetrahydro-2H-pyran-3,4,5-triyl triacetate]: in data set [1], the viability at 72 h, 25 µM was found to be 89.6 ± 2.2%; the viability at 72 h, 50 µM was 85.6 ± 1.7%; the viability at 72 h, 100 µM stood at 84.4 ± 2.6%. Moreover, in data set [2], the “growth inhibitory activity” value is on record as “none of these compounds did have any growth inhibitory activity”.
As for `CC(=O)OC[C@H]1O[C@@H](n2cc(COc3cc(-c4ccc(C(F)(F)F)cc4)nc4ccnn34)nn2)[C@H](OC(C)=O)[C@@H](OC(C)=O)[C@H]1OC(C)=O` [Compound 10f, (2R,3S,4S,5R,6R)-2-(acetoxymethyl)-6-(4-(((5-(4-(trifluoromethyl)phenyl)pyrazolo[1,5-a]pyrimidin-7-yl)oxy)methyl)-1H-1,2,3-triazol-1-yl)tetrahydro-2H-pyran-3,4,5-triyl triacetate], in data set [1], the viability at 72 h, 25 µM is 86.6 ± 1.5%; the viability at 72 h, 50 µM is 88.1 ± 2.8%; the viability at 72 h, 100 µM amounted to 84.2 ± 3%. In data set [2], the “growth inhibitory activity” value is “none of these compounds did have any growth inhibitory activity”.
For `CC(=O)OC[C@H]1O[C@H](n2cc(COc3cc(-c4ccc(C(C)C)cc4)nc4ccnn34)nn2)[C@@H](OC(C)=O)[C@@H](OC(C)=O)[C@@H]1OC(C)=O` [Compound 11g, (2R,3R,4S,5S,6S)-2-(acetoxymethyl)-6-(4-(((5-(4-isopropylphenyl)pyrazolo[1,5-a]pyrimidin-7-yl)oxy)methyl)-1H-1,2,3-triazol-1-yl)tetrahydro-2H-pyran-3,4,5-triyl triacetate] the same measures were 89.8 ± 2.8%, 84.2 ± 5.8%, 88 ± 1.5% and “none of these compounds did have any growth inhibitory activity”.
